Assay results taken from patent US20180251431A1 (VERTEX PHARMACEUTICALS INCORPORATED, priority 2016, published 2018).

These compounds were tested on HEK293 cells (assay: HEK293 VLCFA-LPC IC50 determination (13C-labeled C26:0 LPC by UHPLC/MS)). Conditions: Homo sapiens, HEK293, HEK293 cells; average of one or more replicates; read-out: Average HEK293 IC50.
Type: cell-based, human
Method in brief: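 Suspension HEK293 cells (final 0.5 million/mL after mixing with equal volume) incubated 48 hours with compound plus 13C-acetate (1.0 mg/mL in added media), shaking at 37° C. Lipids extracted with hexane/isopropanol or methanol, C13:0 LPC standard. UHPLC/MS of 13C-labeled C26:0 LPC (638.500/104.100 m/z); IC50 by four-parameter fit.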
For `O=C(Cc1ccccc1)Nc1ccn(-c2ccc(Cl)cc2)n1` [Compound 134, N-[1-(4-chlorophenyl)pyrazol-3-yl]-2-phenyl-acetamide], the IC50 was over 5000 nM. For `CC1(C)CC1(C(=O)Nc1ccn(-c2ccccc2)n1)c1ccccc1F` (stereo not drawn) [Compound 135, 1-(2-fluorophenyl)-2,2-dimethyl-N-(1-phenylpyrazol-3-yl)cyclopropanecarboxamide], the IC50 was 680 nM. `CC1(C)CC1(C(=O)Nc1ccn(-c2ccccc2)n1)c1ccccc1` (stereo not drawn) [Compound 136, 2,2-dimethyl-1-phenyl-N-(1-phenylpyrazol-3-yl)cyclopropanecarboxamide] showed an IC50 of 940 nM. `O=C(Nc1ccn(-c2ccncc2F)n1)C1(c2ccccc2F)CC1` [Compound 137, 1-(2-fluorophenyl)-N-[1-(3-fluoro-4-pyridyl)pyrazol-3-yl]cyclopropanecarboxamide] was tested, and the IC50 was 120 nM. `O=C(Nc1ccn(-c2ccncc2F)n1)C1(c2ccccc2)CC1` [Compound 138, N-(1-(3-fluoropyridin-4-yl)-1H-pyrazol-3-yl)-1-phenylcyclopropane-1-carboxamide] gave an IC50 of 55 nM. `O=C(Cc1ccccc1F)Nc1ccn(-c2ccncc2F)n1` [Compound 139, 2-(2-fluorophenyl)-N-[1-(3-fluoro-4-pyridyl)pyrazol-3-yl]acetamide] was tested, and the IC50 was 400 nM. For `O=C(Cc1ccccc1)Nc1ccn(-c2ccncc2F)n1` [Compound 140, N-[1-(3-fluoro-4-pyridyl)pyrazol-3-yl]-2-phenyl-acetamide], the IC50 was 1100 nM. `O=C(Nc1ccn(-c2ccccc2)n1)C1(c2ccccc2)CC1(Cl)Cl` (stereo not drawn) [Compound 141, 2,2-dichloro-1-phenyl-N-(1-phenylpyrazol-3-yl)cyclopropanecarboxamide] gave an IC50 of 340 nM. `O=C(Nc1ccn(-c2ccccc2)n1)C1(c2ccccc2)CCCCC1` [Compound 142, 1-phenyl-N-(1-phenylpyrazol-3-yl)cyclohexanecarboxamide] showed an IC50 of over 5000 nM. With `O=C(Nc1ccn(-c2ccccc2)n1)C1(c2ccccc2)COC1` [Compound 144, 3-phenyl-N-(1-phenylpyrazol-3-yl)oxetane-3-carboxamide] the IC50 was 260 nM. `O=C(Nc1ccn(-c2ccccc2)n1)[C@]1(c2ccccc2)CC12CCCC2` [Compound 145, (2R)-2-phenyl-N-(1-phenylpyrazol-3-yl)spiro[2.4]heptane-2-carboxamide] gave an IC50 of over 5000 nM. With `O=C(Nc1ccn(-c2ccccc2)n1)[C@@]1(c2ccccc2)CC12CCC2` [Compound 146, (2S)-2-phenyl-N-(1-phenylpyrazol-3-yl)spiro[2.3]hexane-2-carboxamide] the IC50 was 87 nM. For `O=C(Nc1ccn(-c2ccnc(F)c2)n1)C1(c2ccccc2)CC1(Cl)Cl` (stereo not drawn) [Compound 147, 2,2-dichloro-N-[1-(2-fluoro-4-pyridyl)pyrazol-3-yl]-1-phenyl-cyclopropanecarboxamide], the IC50 was 280 nM. For `O=C(Nc1ccn(-c2ccnc(F)c2)n1)C1(c2ccccc2)CCCCC1` [Compound 148, N-[1-(2-fluoro-4-pyridyl)pyrazol-3-yl]-1-phenyl-cyclohexanecarboxamide], the IC50 was over 5000 nM. In the case of `O=C(Nc1ccn(-c2ccnc(F)c2)n1)C1(c2ccccc2)COC1` [Compound 149, N-[1-(2-fluoro-4-pyridyl)pyrazol-3-yl]-3-phenyl-oxetane-3-carboxamide], the IC50 is reported as 660 nM. `O=C(Nc1ccn(-c2ccnc(F)c2)n1)[C@@]1(c2ccccc2)CC12CCCC2` [Compound 150, (2S)-N-[1-(2-fluoro-4-pyridyl)pyrazol-3-yl]-2-phenyl-spiro[2.4]heptane-2-carboxamide] showed an IC50 of under 50 nM. `O=C(Nc1ccn(-c2ccnc(F)c2)n1)[C@@]1(c2ccccc2)CC12CCC2` [Compound 151, (2S)-N-[1-(2-fluoro-4-pyridyl)pyrazol-3-yl]-2-phenyl-spiro[2.3]hexane-2-carboxamide] was tested, and the IC50 was under 50 nM. `O=C(Nc1ccn(-c2ccnc(F)c2)n1)C(c1ccccc1)C1CCCC1` (stereo not drawn) [Compound 152, 2-cyclopentyl-N-[1-(2-fluoro-4-pyridyl)pyrazol-3-yl]-2-phenyl-acetamide] was tested, and the IC50 was 1700 nM. Compound `O=C(Cc1ccccc1)Nc1ccn(-c2ccc(C(F)(F)F)cc2)n1` [Compound 153, 2-phenyl-N-[1-[4-(trifluoromethyl)phenyl]pyrazol-3-yl]acetamide] has an IC50 of over 5000 nM. `O=C(Nc1ccn(-c2ccc(C(F)(F)F)cc2)n1)C1(c2ccccc2F)CC1` [Compound 154, 1-(2-fluorophenyl)-N-[1-[4-(trifluoromethyl)phenyl]pyrazol-3-yl]cyclopropanecarboxamide] was tested, and the IC50 was 360 nM. Compound `O=C(Cc1ccccc1F)Nc1ccn(-c2ccc(C(F)(F)F)cc2)n1` [Compound 155, 2-(2-fluorophenyl)-N-[1-[4-(trifluoromethyl)phenyl]pyrazol-3-yl]acetamide] has an IC50 of over 5000 nM. Compound `O=C(Nc1ccn(-c2ccc(C(F)(F)F)cc2)n1)C1(c2ccccc2)CC1` [Compound 156, 1-phenyl-N-[1-[4-(trifluoromethyl)phenyl]pyrazol-3-yl]cyclopropanecarboxamide] has an IC50 of over 2000 nM. `O=C(Cc1ccccc1)Nc1ccn(-c2cccc(C(F)(F)F)c2)n1` [Compound 157, 2-phenyl-N-[1-[3-(trifluoromethyl)phenyl]pyrazol-3-yl]acetamide] gave an IC50 of over 5000 nM. Work on `O=C(Cc1ccccc1F)Nc1ccn(-c2cccc(C(F)(F)F)c2)n1` [Compound 158, 2-(2-fluorophenyl)-N-[1-[3-(trifluoromethyl)phenyl]pyrazol-3-yl]acetamide] yielded an IC50 of 2900 nM. `O=C(Nc1ccn(-c2cccc(C(F)(F)F)c2)n1)C1(c2ccccc2)CC1` [Compound 159, 1-phenyl-N-[1-[3-(trifluoromethyl)phenyl]pyrazol-3-yl]cyclopropanecarboxamide] showed an IC50 of over 5000 nM. In the case of `O=C(Cc1ccccc1)Nc1ccn(-c2cc(F)ccc2F)n1` [Compound 160, N-[1-(2,5-difluorophenyl)pyrazol-3-yl]-2-phenyl-acetamide], the IC50 is reported as over 5000 nM. `O=C(Nc1ccn(-c2cc(F)ccc2F)n1)C1(c2ccccc2F)CC1` [Compound 161, N-[1-(2,5-difluorophenyl)pyrazol-3-yl]-1-(2-fluorophenyl)cyclopropanecarboxamide] gave an IC50 of 980 nM. For `O=C(Cc1ccccc1F)Nc1ccn(-c2cc(F)ccc2F)n1` [Compound 162, N-[1-(2,5-difluorophenyl)pyrazol-3-yl]-2-(2-fluorophenyl)acetamide], the IC50 was 740 nM. With `O=C(Nc1ccn(-c2cc(F)ccc2F)n1)C1(c2ccccc2)CC1` [Compound 163, N-[1-(2,5-difluorophenyl)pyrazol-3-yl]-1-phenyl-cyclopropanecarboxamide] the IC50 was 4500 nM. With `O=C(Nc1ccn(-c2ccnc(F)c2)n1)[C@]1(c2ccccc2)CC12CCCC2` [Compound 164, (2R)-N-[1-(2-fluoro-4-pyridyl)pyrazol-3-yl]-2-phenyl-spiro[2.4]heptane-2-carboxamide] the IC50 was over 5000 nM. `CC1(C)CC1(C(=O)Nc1ccn(-c2ccnc(F)c2)n1)c1ccccc1` (stereo not drawn) [Compound 165, N-[1-(2-fluoro-4-pyridyl)pyrazol-3-yl]-2,2-dimethyl-1-phenyl-cyclopropanecarboxamide] showed an IC50 of 50 nM. For `CCC1(C)CC1(C(=O)Nc1ccn(-c2ccccc2)n1)c1ccccc1` (stereo not drawn) [Compound 166, 2-ethyl-2-methyl-1-phenyl-N-(1-phenylpyrazol-3-yl)cyclopropanecarboxamide], the IC50 was 630 nM. In the case of `O=C(Nc1ccn(-c2ccccc2)n1)C(c1ccccc1)C1CCCC1` (stereo not drawn) [Compound 167, 2-cyclopentyl-2-phenyl-N-(1-phenylpyrazol-3-yl)acetamide], the IC50 is reported as over 5000 nM. Work on `CCC1(C)CC1(C(=O)Nc1ccn(-c2ccnc(F)c2)n1)c1ccccc1` (stereo not drawn) [Compound 168, 2-ethyl-N-[1-(2-fluoro-4-pyridyl)pyrazol-3-yl]-2-methyl-1-phenyl-cyclopropanecarboxamide] yielded an IC50 of 86 nM. Compound `CSCC(C(=O)Nc1ccn(-c2ccccc2)n1)c1ccccc1` (stereo not drawn) [Compound 170, 3-methylsulfanyl-2-phenyl-N-(1-phenylpyrazol-3-yl)propanamide] has an IC50 of over 5000 nM. For `CCC(C(=O)Nc1ccn(-c2ccnc(F)c2)n1)c1ccccc1` (stereo not drawn) [Compound 171, N-[1-(2-fluoro-4-pyridyl)pyrazol-3-yl]-2-phenyl-butanamide], the IC50 was 140 nM. `O=C(Nc1ccn(-c2ccnc(F)c2)n1)C1(c2ccccc2)CC(F)(F)C1` [Compound 172, 3,3-difluoro-N-[1-(2-fluoro-4-pyridyl)pyrazol-3-yl]-1-phenyl-cyclobutanecarboxamide] gave an IC50 of 380 nM. `CCCC(C(=O)Nc1ccn(-c2ccnc(F)c2)n1)c1ccccc1` (stereo not drawn) [Compound 173, N-(1-(2-fluoropyridin-4-yl)-1H-pyrazol-3-yl)-2-phenylpentanamide] was tested, and the IC50 was 72 nM. With `O=C(Nc1ccn(-c2ccnc(F)c2)n1)C1(c2ccccc2)CCOCC1` [Compound 174, N-[1-(2-fluoro-4-pyridyl)pyrazol-3-yl]-4-phenyl-tetrahydropyran-4-carboxamide] the IC50 was over 5000 nM. Compound `O=C(Nc1ccn(-c2ccnc(F)c2)n1)C(c1ccccc1)C1CC1` (stereo not drawn) [Compound 175, 2-cyclopropyl-N-[1-(2-fluoro-4-pyridyl)pyrazol-3-yl]-2-phenyl-acetamide] has an IC50 of 520 nM. With `CCCC(C(=O)Nc1ccn(-c2ccccc2)n1)c1ccccc1` (stereo not drawn) [Compound 176, 2-phenyl-N-(1-phenylpyrazol-3-yl)pentanamide] the IC50 was 870 nM. Work on `O=C(Nc1ccn(-c2ccccc2)n1)C1(c2ccccc2)CC(F)(F)C1` [Compound 177, 3,3-difluoro-1-phenyl-N-(1-phenylpyrazol-3-yl)cyclobutanecarboxamide] yielded an IC50 of 790 nM. With `O=C(Nc1ccn(-c2ccccc2)n1)C1(c2ccccc2)CCOCC1` [Compound 178, 4-phenyl-N-(1-phenylpyrazol-3-yl)tetrahydropyran-4-carboxamide] the IC50 was over 5000 nM. For `O=C(Nc1ccn(-c2ccccc2)n1)C(c1ccccc1)C1CC1` (stereo not drawn) [Compound 179, 2-cyclopropyl-2-phenyl-N-(1-phenylpyrazol-3-yl)acetamide], the IC50 was 1600 nM. In the case of `O=C(Nc1ccn(-c2cncc(F)c2)n1)C1(c2ccccc2F)CC1` [Compound 180, 1-(2-fluorophenyl)-N-[1-(5-fluoro-3-pyridyl)pyrazol-3-yl]cyclopropanecarboxamide], the IC50 is reported as 20 nM.
